From patent EP3355943B1, “METHODS AND SYSTEMS FOR TREATING MEDICAL DEVICES AND FLUIDS” (Ethicon, Inc., priority 2015, dated 2017)
Marks after values point to notes of the source that are not given here.

Assay: Kinetics of removal of LPS with different agitation techniques in presence of stearate salts
Type: biochemical
Parameters: Endotoxin Detected: unit not given here
Conditions: for Endotoxin Detected (EU) / Endotoxin Detected: 5mL SRW, baseline 1,502; for Percent (%) Removed: vs SRW Baseline; for Endotoxin Detected: Table 18
Experimental: 5mL of SRW was added to each of the tubes. Each solution was tested for endotoxin removal after agitation based on with sonication, vortexing, or test tube rolling. Sonication samples were sonicated at each indicated time interval for 30 seconds at a magnitude of 30. Vortex samples were vortexed at each indicated time interval for 30 seconds at 2500 RPM. Rolling samples were constantly rolling at 10 rpm. The samples were tested on the MCS for endotoxin at 1 minute, 20 minutes, 40 minutes, 60 minutes, and 80 minutes.

Molecule | Percent (%) Removed (Rolling, 1 minute) | Percent (%) Removed (Rolling, 20 minutes) | Percent (%) Removed (Rolling, 40 minutes) | Percent (%) Removed (Rolling, 60 minutes) | Percent (%) Removed (Rolling, 80 minutes) | Percent (%) Removed (Sonication, 1 minute) | Percent (%) Removed (Sonication, 20 minutes) | Percent (%) Removed (Sonication, 40 minutes) | Percent (%) Removed (Sonication, 60 minutes) | Percent (%) Removed (Sonication, 80 minutes) | Percent (%) Removed (Vortexing, 1 minute) | Percent (%) Removed (Vortexing, 20 minutes) | Percent (%) Removed (Vortexing, 40 minutes) | Percent (%) Removed (Vortexing, 60 minutes) | Percent (%) Removed (Vortexing, 80 minutes) | further results
CCCCCCCCCCCCCCCCCC(=O)O [Magnesium Stearate] | 29.4% | 25.4% | 29.4% | 25.4% | 20.8% | 50.5% | 52.3% | 45.1% | 41.1% | 53.2% | 41.1% | 33.4% | 40% | 36.2% | 29.4% | Endotoxin Detected (EU) (Rolling, 1 minute): 1,060 EU; Endotoxin Detected (EU) (Rolling, 20 minutes): 1,120 EU; Endotoxin Detected (EU) (Rolling, 40 minutes): 1,060 EU; Endotoxin Detected (EU) (Rolling, 60 minutes): 1,120 EU; Endotoxin Detected (EU) (Rolling, 80 minutes): 1,190 EU; Endotoxin Detected (EU) (Sonication, 1 minute): 743 EU; Endotoxin Detected (EU) (Sonication, 20 minutes): 716 EU; Endotoxin Detected (EU) (Sonication, 40 minutes): 824 EU; Endotoxin Detected (EU) (Sonication, 60 minutes): 884 EU; Endotoxin Detected (EU) (Sonication, 80 minutes): 703 EU; Endotoxin Detected (EU) (Vortexing, 1 minute): 884 EU; Endotoxin Detected (EU) (Vortexing, 20 minutes): 1,000 EU; Endotoxin Detected (EU) (Vortexing, 40 minutes): 901 EU; Endotoxin Detected (EU) (Vortexing, 60 minutes): 958 EU; Endotoxin Detected (EU) (Vortexing, 80 minutes): 1,060 EU
Aluminum Monostearate | 85.3% | 16.1% | 17.4% | 55.3% | 18.8% | 58.3% | 73% | 75% | 71.1% | 80.6% | 45.6% | 43.5% | 47.7% | 46.7% | 49.6% | Endotoxin Detected (Rolling, 1 minute): 221*; Endotoxin Detected (Rolling, 20 minutes): 1,260; Endotoxin Detected (Rolling, 40 minutes): 1,240; Endotoxin Detected (Rolling, 60 minutes): 672; Endotoxin Detected (Rolling, 80 minutes): 1,220; Endotoxin Detected (Sonication, 1 minute): 626; Endotoxin Detected (Sonication, 20 minutes): 406; Endotoxin Detected (Sonication, 40 minutes): 375; Endotoxin Detected (Sonication, 60 minutes): 434; Endotoxin Detected (Sonication, 80 minutes): 291; Endotoxin Detected (Vortexing, 1 minute): 817; Endotoxin Detected (Vortexing, 20 minutes): 849; Endotoxin Detected (Vortexing, 40 minutes): 786; Endotoxin Detected (Vortexing, 60 minutes): 801; Endotoxin Detected (Vortexing, 80 minutes): 757
